Assay results published in patent publication US20130029928A1 (priority 2010, published 2013).
Like-named read-outs stand apart in the source and are kept apart here.

Assay: Phase I study CXR1002-001: plasma pharmacokinetics (LC-MS/MS)
Assay type: in vivo, human
Details: human, plasma, oral; for concentration at 843 h / concentration at 844 h / concentration at 864 h / concentration at 3 h / concentration at 4 h / concentration at 24 h / concentration at 168 h / concentration at 170 h / concentration at 171 h / concentration at 192 h / concentration at 336 h / concentration at 338 h / concentration at 339 h / concentration at 340 h / concentration at 360 h / concentration at 504 h / concentration at 506 h / concentration at 507 h / concentration at 508 h / concentration at 528 h / concentration at 672 h / concentration at 674 h / concentration at 675 h / concentration at 676 h / concentration at 696 h / concentration at 840 h / concentration at 842 h / concentration at 2 h / concentration at 172 h: read-out: Concentration; for concentration at 864 h: 864 hr (Day 37); for concentration at 24 h: 24 hr (Day 2); for concentration at 168 h: 168 hr (Day 8); for concentration at 336 h: 336 hr (Day 15); for concentration at 504 h: 504 hr (Day 22); for concentration at 528 h: 528 hr (Day 23); for concentration at 672 h: 672 hr (Day 29); for concentration at 840 h: 840 hr (Day 36)
From the text: PK samples, PD (fasting) samples, blood glucose, and blood triglyceride samples, were taken over a 6-week period.
Dose limiting toxicity (DLT) will be based on the toxicity assessments over the first 3-week period of the repeat dosing schedule. PK samples (single blood sample) were taken on the following basis: • Every 6 weeks during the repeat dosing phase • If dosing is interrupted or stopped, samples will be taken at intervals according to patient convenience • PK sampling for safety evaluation may take place at any time, as clinically indicated
Plasma samples were collected after the single 50 mg dose at the following timepoints: Pre-dose, and then 0.25, 0.5, 0.75, 1, 1.5, 2, 3, 4, 6, 24, 48, and 72 hours after administration and then once weekly at weeks 2, 3, 4, 5, and 6 (days 8, 15, 22, 29, and 36). For patients treated with the weekly repeat dose, plasma samples were collected at the following timepoints: Pre-dose and then 2, 3, 4 and 24 hours after administration for a total of 6 weeks. Thereafter a single sample was collected every 6 weeks for monitoring of exposure during long term treatment. Plasma samples were processed at site and stored at −80° C. prior to batch shipment to the analytical laboratory.

[1] = 300 mg, Patient 014 Dose 300 mg
[2] = 450 mg, Patient 015 Dose 450 mg
[3] = 450 mg, Patient 016 Dose 450 mg
[4] = 450 mg, Patient 017 Dose 450 mg
[5] = 600 mg, Patient 018, 600 mg, person
[6] = 600 mg, Patient 020, 600 mg, person
[7] = 600 mg, Patient 021, 600 mg, person

O=C(O)C(F)(F)C(F)(F)C(F)(F)C(F)(F)C(F)(F)C(F)(F)C(F)(F)F [CXR1002]
concentration at 843 h [1]: 520 µM | concentration at 844 h [1]: 563 µM | concentration at 864 h [1]: 488 µM | concentration at 12 week (300 mg, Patient 014 Dose 300 mg, Week 12): 890 µM | concentration at 18 week (300 mg, Patient 014 Dose 300 mg, Week 18): 980 µM | concentration at 3 h [2]: 231 µM | concentration at 4 h [2]: 217 µM | concentration at 24 h [2]: 126 µM | concentration at 168 h [2]: 138 µM | concentration at 170 h [2]: 325 µM | concentration at 171 h [2]: 314 µM | concentration at 192 h (450 mg, Patient 015 Dose 450 mg, 192 hr (Day 9)): 294 µM | concentration at 336 h [2]: 286 µM | concentration at 338 h [2]: 463 µM | concentration at 339 h [2]: 393 µM | concentration at 340 h [2]: 424 µM | concentration at 360 h (450 mg, Patient 015 Dose 450 mg, 360 hr (Day 16)): 412 µM | concentration at 504 h [2]: 387 µM | concentration at 506 h [2]: 579 µM | concentration at 507 h [2]: 548 µM | concentration at 508 h [2]: 513 µM | concentration at 528 h [2]: 551 µM | concentration at 672 h [2]: 544 µM | concentration at 674 h [2]: 622 µM | concentration at 675 h [2]: 633 µM | concentration at 676 h [2]: 675 µM | concentration at 696 h (450 mg, Patient 015 Dose 450 mg, 696 hr (Day 30)): 708 µM | concentration at 840 h [2]: 575 µM | concentration at 842 h [2]: 703 µM | concentration at 843 h [2]: 655 µM | concentration at 844 h [2]: 801 µM | concentration at 864 h [2]: 592 µM | concentration at 2 h [3]: 108 µM | concentration at 3 h [3]: 126 µM | concentration at 4 h [3]: 88.1 µM | concentration at 24 h [3]: 164 µM | concentration at 170 h [3]: 328 µM | concentration at 171 h [3]: 255 µM | concentration at 172 h [3]: 244 µM | concentration at 192 h (450 mg, Patient 016 Dose 450 mg, 192 hr (Day 9)): 348 µM | concentration at 336 h [3]: 287 µM | concentration at 338 h [3]: 418 µM | concentration at 339 h [3]: 454 µM | concentration at 340 h [3]: 442 µM | concentration at 360 h (450 mg, Patient 016 Dose 450 mg, 360 hr (Day 16)): 471 µM | concentration at 504 h [3]: 546 µM | concentration at 506 h [3]: 693 µM | concentration at 507 h [3]: 721 µM | concentration at 508 h [3]: 698 µM | concentration at 528 h [3]: 692 µM | concentration at 672 h [3]: 605 µM | concentration at 674 h [3]: 907 µM | concentration at 675 h [3]: 745 µM | concentration at 676 h [3]: 732 µM | concentration at 696 h (450 mg, Patient 016 Dose 450 mg, 696 hr (Day 30)): 871 µM | concentration at 2 h [4]: 99.7 µM | concentration at 3 h [4]: 136 µM | concentration at 4 h [4]: 163 µM | concentration at 336 h [4]: 216 µM | concentration at 338 h [4]: 325 µM | concentration at 339 h [4]: 342 µM | concentration at 360 h (450 mg, Patient 017 Dose 450 mg, 360 hr): 258 µM | concentration at 672 h [4]: 404 µM | concentration at 674 h [4]: 451 µM | concentration at 675 h [4]: 497 µM | concentration at 676 h [4]: 485 µM | concentration at 696 h (450 mg, Patient 017 Dose 450 mg, 696 hr): 483 µM | concentration at 2 h [5]: 339 µM | concentration at 3 h [5]: 280 µM | concentration at 4 h [5]: 248 µM | concentration at 24 h [5]: 213 µM | concentration at 168 h [5]: 181 µM | concentration at 170 h [5]: 398 µM | concentration at 171 h [5]: 407 µM | concentration at 192 h (600 mg, Patient 018, 600 mg, person, 192 hr (day 9)): 386 µM | concentration at 336 h [5]: 356 µM | concentration at 338 h [5]: 551 µM | concentration at 339 h [5]: 563 µM | concentration at 340 h [5]: 591 µM | concentration at 360 h (600 mg, Patient 018, 600 mg, person, 360 hr (Day 16)): 554 µM | concentration at 2 h [6]: 208 µM | concentration at 4 h [6]: 180 µM | concentration at 24 h [6]: 413 µM | concentration at 168 h [6]: 125 µM | concentration at 170 h [6]: 327 µM | concentration at 171 h [6]: 310 µM | concentration at 172 h [6]: 279 µM | concentration at 192 h (600 mg, Patient 020, 600 mg, person, 192 hr (day 9)): 268 µM | concentration at 336 h [6]: 272 µM | concentration at 338 h [6]: 474 µM | concentration at 339 h [6]: 434 µM | concentration at 340 h [6]: 438 µM | concentration at 360 h (600 mg, Patient 020, 600 mg, person, 360 hr (Day 16)): 410 µM | concentration at 504 h [6]: 441 µM | concentration at 506 h [6]: 477 µM | concentration at 507 h [6]: 526 µM | concentration at 508 h [6]: 536 µM | concentration at 528 h [6]: 563 µM | concentration at 672 h [6]: 540 µM | concentration at 674 h [6]: 547 µM | concentration at 675 h [6]: 603 µM | concentration at 676 h [6]: 652 µM | concentration at 696 h (600 mg, Patient 020, 600 mg, person, 696 hr (Day 30)): 615 µM | concentration at 840 h [6]: 582 µM | concentration at 842 h [6]: 700 µM | concentration at 843 h [6]: 764 µM | concentration at 844 h [6]: 770 µM | concentration at 864 h [6]: 703 µM | concentration at 2 h [7]: 77.2 µM | concentration at 3 h [7]: 121 µM | concentration at 24 h [7]: 203 µM | concentration at 168 h [7]: 218 µM | concentration at 170 h [7]: 504 µM | concentration at 171 h [7]: 417 µM | concentration at 172 h [7]: 451 µM
